Measurements published in publication PMC9732823, “Discovery of Dual Aβ/Tau Inhibitors and Evaluation of Their Therapeutic Effect on a Drosophila Model of Alzheimer’s Disease” (ACS Chemical Neuroscience, 2022).

Experiments:
[1] = test system: cerebellar granule neurons (CGNs); assay: Neurotoxicity on primary cultures of cerebellar granule neurons (nuclei counting after Hoechst staining); conditions: differentiated CGNs, 24 h, percentage of healthy nuclei on total nuclei, mean ± SEM of three experiments
[2] = biological target: T1, Tau protein (Homo sapiens, UniProt P10636); assay: Inhibition of Tau aggregation in intact E. coli cells overexpressing Tau (ThS fluorescence); assay type: cell-based, Escherichia coli; conditions: for % inhibition Tau aggregation @ 10 μM: intact E. coli cells, compound 10 μM, mean ± SEM of four independent experiments; for inhibition at 10 µM: read-out: % inhibition Tau aggregation @ 10 μM, intact E. coli cells, compound 10 μM, mean ± SEM of four independent experiments
T1 construct: expressed in transfected cells; host or cells: Escherichia coli BL21 (DE3) with pTARA and pRKT42
T1 sequence (P10636 1-441 isoform P10636-8): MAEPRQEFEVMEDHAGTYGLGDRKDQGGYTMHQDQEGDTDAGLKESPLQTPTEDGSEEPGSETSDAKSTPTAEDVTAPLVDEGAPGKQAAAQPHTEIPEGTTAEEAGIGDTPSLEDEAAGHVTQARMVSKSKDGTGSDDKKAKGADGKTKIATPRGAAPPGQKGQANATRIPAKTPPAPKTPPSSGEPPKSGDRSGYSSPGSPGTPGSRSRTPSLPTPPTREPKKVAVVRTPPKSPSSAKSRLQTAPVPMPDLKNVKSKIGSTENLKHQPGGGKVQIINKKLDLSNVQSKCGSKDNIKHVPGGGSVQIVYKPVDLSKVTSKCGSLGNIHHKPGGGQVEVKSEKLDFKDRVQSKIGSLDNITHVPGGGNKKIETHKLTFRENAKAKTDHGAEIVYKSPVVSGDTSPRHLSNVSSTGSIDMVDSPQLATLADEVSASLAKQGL
From the text: (§1) As it would have been labor-intensive and expensive to screen such a number of compounds in two separate antiaggregating studies using recombinant Aβ and Tau, we turned our attention to a simple model of protein aggregation, namely, the intact Escherichia coli (E. coli) cells overexpressing Aβ42 and Tau proteins.[28],[29] Building on the fact that inclusion bodies produced by overexpression of these proteins in E. coli mainly consist of fibrillar aggregates, this simple screening method uses bacteria as an in vivo reservoir for tracking the inhibition of amyloid-type protein aggregation in real time, using the amyloid dye thioflavin S (ThS). Of note, this screening has already been used for the evaluation of libraries of antiaggregating compounds.[28]−[38]
E. coli BL21 (DE3) competent cells were transformed with pTARA containing the RNA-polymerase gen of the T7 phage (T7RP) under the control of the promoter PBAD. E. coli BL21 (DE3) with pTARA competent cells were transformed with the pRKT42 vector encoding four repeats of Tau protein in two inserts. For overnight culture preparation, 10 mL of M9 medium containing 0.5% of glucose, 100 μg·mL^–1 ampicillin, and 12.5 μg·mL^–1 chloramphenicol were inoculated with a colony of BL21 (DE3) bearing the plasmids to be expressed at 37 °C. For expression of Tau protein, the required volume of overnight culture to obtain 1:500 dilution was added to fresh M9 minimal medium containing 0.5% of glucose, 50 μg·mL^–1 ampicillin, 12.5 μg·mL^–1 chloramphenicol, and 25 μM ThS. The bacterial culture was grown at 37 °C and 250 rpm. When the cell density reached ABS600 nm= 0.6, an amount of 980 μL of culture was transferred into Eppendorf tubes of 1.5 mL with 10 μL of each compound to be tested in DMSO and 10 μL of arabinose at 25%. The final concentration of the drug was fixed at 10 μM. The samples were grown overnight at 37 °C and 1400 rpm using a thermomixer (Eppendorf, Hamburg, Germany). As the control of maximal amyloid presence, the same amount of DMSO without the drug was added to the sample. In parallel, noninduced samples (in the absence of arabinose) were also prepared and used as controls for the amyloid absence. In addition, the absorbance at 600 nm of the samples was checked to assess the potential intrinsic toxicity of the compounds and to confirm the correct bacterial growth.
(§2) ThS (T1892) and other chemical reagents were purchased from Sigma (St. Louis, MO). ThS stock solution (25 mM) was prepared in double-distilled water purified through a Milli-Q system (Millipore). For the fluorescence assay, the ThS spectra were measured on an AMINCO-Bowman series 2 luminescence spectrophotometer (Aminco-Bowman AB2, SLM Aminco, Rochester, NY) from 460 to 600 nm at 25 °C using an excitation wavelength of 440 nm and slit widths of 4 nm. The emission at 485 nm (fluorescence peak of ThS in the presence of amyloids) was recorded. To normalize the ThS fluorescence as a function of the bacterial concentration, ABS600nm was obtained using a Shimadzu UV-2401 PC UV–Vis spectrophotometer (Shimadzu, Japan). Note that the fluorescence normalization was carried out considering as 100% the ThS fluorescence of the bacterial cells expressing the peptide or protein in the absence of the drug and 0% the ThS fluorescence of the bacterial cells nonexpressing the peptide or protein.

[3] = PAMPA-BBB assay; conditions: for Papp: pH 7.4; for BBB permeability prediction: PAMPA-BBB
From the text: Thus, to reduce attrition in the development process, the evaluation of BBB penetration at a very early drug discovery stage is of crucial importance. In light of this, the ability of the previously selected compounds to cross the BBB was predicted by a parallel artificial membrane permeability assay (PAMPA)-BBB,[41] a high-throughput technique widely used as an indicator of a molecule’s passive diffusion through the BBB. Six commercially available drugs were used to validate the assay.
PAMPA (the parallel artificial membrane permeability assay) is a high-throughput screening tool applicable for the prediction of the passive transport of potential drugs across the BBB.[41] In this study, it has been used as a non-cell-based in vitro assay carried out in a coated 96-well membrane filter. The filter membrane of the donor plate was coated with PBL (Polar Brain Lipid, Avanti) in dodecane (4 μL of 20 mg/mL PBL in dodecane) and the acceptor well was filled with 300 μL of phosphate buffer saline, (PBS pH 7.4; VA). The tested compounds were dissolved first in DMSO and then diluted with PBS pH 7.4 to reach the final concentrations of 50–500 μM in the donor well. […] Then, 300 μL of the donor solution (VD) was added to the donor wells and the donor filter plate was carefully put on the acceptor plate so that the coated membrane was “in touch” with both donor solution and acceptor buffer. In principle, the test compound diffuses from the donor well through the polar brain lipid membrane (area = 0.28 cm^2) to the acceptor well. The concentrations of the tested compound in both donor and the acceptor wells were assessed after 3, 4, 5, and 6 h of incubation in quadruplicate using a UV plate reader, Synergy HT (Biotek) at the maximum absorption wavelength of each compound (n=3). In addition to that, solution of the theoretical compound concentration, simulating the equilibrium state established if the membrane were ideally permeable, was prepared and assessed as well. The concentrations of the compounds in the donor and acceptor wells and the equilibrium concentration were calculated from the standard curve and expressed as the permeability (Pe) according to the equation[41] [drawing 1] where [drawing 2]

[4] = biological target: T2, Aβ42 (Homo sapiens, UniProt P05067); assay: Inhibition of Aβ42 aggregation in intact E. coli cells overexpressing Aβ42 (ThS fluorescence); assay type: cell-based, Escherichia coli; conditions: for % inhibition Aβ42 aggregation @ 10 μM: intact E. coli cells, compound 10 μM, mean ± SEM of four independent experiments; for inhibition at 10 µM: read-out: % inhibition Aβ42 aggregation @ 10 μM, intact E. coli cells, compound 10 μM, mean ± SEM of four independent experiments
T2 construct: expressed in transfected cells; host or cells: Escherichia coli BL21 (DE3), pET28a
T2 sequence (P05067 672-713 limits assumed): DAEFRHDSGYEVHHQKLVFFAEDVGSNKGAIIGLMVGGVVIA
From the text: as §1
Escherichia coli competent cells BL21 (DE3) were transformed with the pET28a vector (Novagen, Inc., Madison, WI) carrying the DNA sequence of Aβ42. Because of the addition of the initiation codon ATG in front of both genes, the overexpressed peptide contains an additional methionine residue at its N terminus. For overnight culture preparation, an amount of 10 mL of M9 minimal medium containing 50 μg·mL^–1 kanamycin was inoculated with a colony of BL21 (DE3) bearing the plasmid to be expressed at 37 °C. For expression of the Aβ42 peptide, the required volume of overnight culture to obtain 1:500 dilution was added into fresh M9 minimal medium containing 50 μg·mL^–1 kanamycin and 250 μM ThS. The bacterial culture was grown at 37 °C and 250 rpm. When the cell density reached ABS600 nm = 0.6, an amount of 980 μL of culture was transferred into Eppendorf tubes of 1.5 mL with 10 μL of each compound to be tested in DMSO and 10 μL of isopropyl 1-thio-β-D-galactopyranoside (IPTG) at 100 mM. The final concentration of the drug was fixed at 10 μM. The samples were grown overnight at 37 °C and 1400 rpm using a thermomixer (Eppendorf, Hamburg, Germany). As the control of the amyloid presence (maximal amyloid presence), the same amount of DMSO without the drug was added to the sample. In parallel, noninduced samples (in the absence of IPTG) were also prepared and used as controls of the non-amyloid presence. In addition, the absorbance at 600 nm of the samples was checked to assess the potential intrinsic toxicity of the compounds and to confirm the correct bacterial growth.
as §2

[5] = Compound stability in the PAMPA buffer solution; assay type: in vitro ADME; conditions: after 6h, donor and acceptor wells
From the text: Table S1. Prediction of BBB penetration of the studied compounds expressed as Pe ± SEM (n=3)

[6] = PAMPA-BBB penetration estimation

O=C(O)CN1C(=O)S/C(=C\c2ccc3[nH]c4ccc(/C=C5\SC(=O)N(CC(=O)O)C5=O)cc4c3c2)C1=O [Compound 16, 2,2′-((5Z,5′Z)-((9H^–Carbazole-3,6-diyl)bis(methanylylidene))bis(2,4-dioxothiazolidin-3-yl-5-ylidene))diacetic acid]
% survival neurotoxicity @ 10 μM [1]: 90.0 ± 2.8% | % inhibition Tau aggregation @ 10 μM [2]: 37.9 ± 3.5% | inhibition at 10 µM [2]: 30 to 40% | Papp ([3]; PAMPA): 0.55 ± 0.12 ×10⁻⁶ cm/s | % inhibition Aβ42 aggregation @ 10 μM [4]: 32.1 ± 3.1% | inhibition at 10 µM [4]: 30 to 40%

CO/N=C(\C(=O)N[C@@H]1C(=O)N2C(C(=O)O)=C(COC(N)=O)CS[C@H]12)c1ccco1 [Cefuroxime, reference compound]
CNS (+/-) [3, 6]: CNS - (CNS - (low BBB permeation predicted): Pe (×10-6 cm s-1) < 2.0)

CC1(C)c2cc(/C=C3\SC(=O)N(CC(=O)O)C3=O)ccc2-c2ccc(/C=C3\SC(=O)N(CC(=O)O)C3=O)cc21 [Compound 17, 2,2′-((5Z,5′Z)-((9,9-Dimethyl-9H-fluorene-2,7-diyl)bis(methanylylidene))bis(2,4-dioxothiazolidin-3-yl-5-ylidene))diacetic acid]
% survival neurotoxicity @ 10 μM [1]: 89.3 ± 2.3% | inhibition at 10 µM [2]: > 50% | Papp ([3]; PAMPA): 0.88 ± 0.2 ×10⁻⁶ cm/s | inhibition at 10 µM [4]: > 50%

CCOC(=O)CN1C(=O)S/C(=C\c2ccc(/C=C3\SC(=O)N(CC(=O)OCC)C3=O)cc2)C1=O [Compound 7, Diethyl 2,2′-((5Z,5′Z)-(1,4-phenylenebis(methanylylidene))bis(2,4-dioxothiazolidin-3-yl-5-ylidene))diacetate]
% survival neurotoxicity @ 10 μM [1]: 90.1 ± 2.1% | % inhibition Tau aggregation @ 10 μM [2]: 30.6 ± 3.6% | inhibition at 10 µM [2]: 30% | Papp ([3]; PAMPA): 11.4 ± 0.49 ×10⁻⁶ cm/s | BBB permeability prediction [3]: predicted to passively diffuse across the BBB | CNS (+/-) [3, 6]: CNS + (CNS + (high BBB permeation predicted): Pe (×10-6 cm s-1) > 4.0) | % inhibition Aβ42 aggregation @ 10 μM [4]: 40.7 ± 4.4% | inhibition at 10 µM [4]: 40% | degradation in the PAMPA buffer solution [5]: < 20%

CC1(C)c2cc(/C=C3\SC(=O)NC3=O)ccc2-c2ccc(/C=C3\SC(=O)NC3=O)cc21 [Compound 5, (5Z,5′Z)-5,5′-((9,9-Dimethyl-9H-fluorene-2,7-diyl)bis(methanylylidene))bis(thiazolidine-2,4-dione)]
% survival neurotoxicity @ 10 μM [1]: 67.9 ± 5.4% | inhibition at 10 µM [2]: 14.8 ± 3% | inhibition at 10 µM [4]: 23.6 ± 2.6%

CCN(C)C(=O)Oc1cccc([C@H](C)N(C)C)c1 [Rivastigmine, reference compound]
CNS (+/-) ([3]; PAMPA): CNS + (key: CNS + (high BBB permeation predicted): Pe (×10-6 cm s-1) > 4.0; CNS - (low BBB permeation predicted): Pe (×10-6 cm s-1) < 2.0; CNS +/- (uncertain BBB permeation): Pe (×10-6 cm s-1) from 4.0 to 2.0)

CCOC(=O)CN1C(=O)S/C(=C\c2ccc3[nH]c4ccc(/C=C5\SC(=O)N(CC(=O)OCC)C5=O)cc4c3c2)C1=O [Compound 10, Diethyl 2,2′-((5Z,5′Z)-((9H-carbazole-3,6-diyl)bis(methanylylidene))bis(2,4-dioxothiazolidin-3-yl-5-ylidene))diacetate]
% survival neurotoxicity @ 10 μM [1]: 84.2 ± 6.3% | % inhibition Tau aggregation @ 10 μM [2]: 37.7 ± 4.1% | inhibition at 10 µM [2]: 30 to 40% | Papp ([3]; PAMPA): 5.79 ± 1.16 ×10⁻⁶ cm/s | BBB permeability prediction [3]: predicted to passively diffuse across the BBB | CNS (+/-) [3, 6]: CNS + (CNS + (high BBB permeation predicted): Pe (×10-6 cm s-1) > 4.0) | % inhibition Aβ42 aggregation @ 10 μM [4]: 31.9 ± 3.0% | inhibition at 10 µM [4]: 30 to 40% | degradation in the PAMPA buffer solution [5]: < 20%

O=C(O)CN1C(=O)S/C(=C\c2ccc(-c3ccc(/C=C4\SC(=O)N(CC(=O)O)C4=O)cc3)cc2)C1=O [Compound 14, 2,2′-((5Z,5′Z)-([1,1′-Biphenyl]-4,4′-diylbis(methanylylidene))bis(2,4-dioxothiazolidin-3-yl-5-ylidene))diacetic acid]
% survival neurotoxicity @ 10 μM [1]: 89.0 ± 2.2% | inhibition at 10 µM [2]: 27.1 ± 2.5% | inhibition at 10 µM [4]: 35.1 ± 1.9%

O=C1NC(=O)/C(=C/c2ccc(-c3ccc(/C=C4\SC(=O)NC4=O)cc3)cc2)S1 [Compound 2, (5Z,5′Z)-5,5′-([1,1′-Biphenyl]-4,4′-diylbis(methanylylidene))bis(thiazolidine-2,4-dione)]
% survival neurotoxicity @ 10 μM [1]: 81.3 ± 6.5% | inhibition at 10 µM [2]: 16.5 ± 3.1% | inhibition at 10 µM [4]: 20.2 ± 2.1%

O=C1NC(=O)/C(=C/c2ccc(-c3ccc(/C=C4\SC(=O)NC4=O)s3)s2)S1 [Compound 6, (5Z,5′Z)-5,5′-([2,2′-Bithiophene]-5,5′-diylbis(methanylylidene))bis(thiazolidine-2,4-dione)]
% survival neurotoxicity @ 10 μM [1]: 89.9 ± 1.2% | % inhibition Tau aggregation @ 10 μM [2]: 19.4 ± 3.9% | inhibition at 10 µM [2]: < 20% | inhibition at 10 µM [4]: 42.4 ± 4.5%
